Several values for one entry are separate records, joined by “and”; a condition that tells them apart may be missing. Equal entries are not always repeated.

The assay relates to 922993-354-T-J3-PDC complex spheroid viability. The assay is described as follows: Anticancer human tumor 922993-354-T-J3-PDC patient-derived endometrial carcinoma cell line growth inhibition [POLQ]. The settings on record: for viability, T/C: stronger effect = lower value. On the procedure:
Multicellular complex tumor spheroid response to Polymerase (POL) inhibitors (novobiocin, ART-558, RP6685) in combination with a variety of drugs and investigational agents in selected tumor cell lines
The POL inhibitors (novobiocin, ART-558, and RP6685) were evaluated both individually and in combination with standard of care and investigational anticancer small molecules within a complex spheroid model of solid tumors. . Complex spheroids include a stromal component modeled by human endothelial cells (HUVEC) and fibroblasts modeled by human mesenchymal stem cells (MSCs). The concentration ranges selected for each drug and investigational agent were based upon clinically achievable concentrations if the clinical Cmax of the agent was known.
Compounds. The drugs and investigational agents: novobiocin (NSC847541), ART-558 (NSC835418), RP-6685 (NSC848927), peposertib (NSC802822), ceralasertib (NSC780249), elimusertib (NSC800525), camonsertib (NSC841442), AZD-1390 (NSC803789), olaparib (NSC753686), talazoparib (NSC767125), rucaparib (NSC756644), sotorasib (NSC818433), MRTX-1133 (NSC836407), SN-38 (NSC673596), topotecan (NSC609699), epotoside (NSC141540), doxorubicin (NSC123127), gemcitabine (NSC613327), 5-fluorouracil (NSC19893), paclitaxel (NSC125973), vemurafenib (NSC761431), MSA-2 (NSC828583), SN-011 (NSC837082), adavosertib (NSC754352), prexasertib (NSC758257), carboplatin (NSC241240) and oxaliplatin (NSC266046), were obtained from the National Cancer Institute (NCI) Developmental Therapeutics Program Chemical Repository (21). The FDA-approved anticancer drug set is available from the Developmental Therapeutics Program at https://dtp.cancer.gov/organization/dscb/obtaining/. […] The stock solutions were prepared in dimethyl sulfoxide (DMSO, Sigma-Aldrich, St. Louis, MO, cat. D2650), except for the platinum compounds which were prepared in saline (Quality Biological, Gaithersburg, MD, cat. 114-055-101), at 800-fold the tested concentration and stored at -70 degrees C prior to their use. All drugs and investigational agents were tested over a range starting from a high concentration at or near the clinical Cmax and decreasing in half-log increments. If the clinical Cmax for an agent had not been determined, the highest concentration tested was 10 microM, except for SN-38, which was tested at a high concentration of 1 microM.
Cell Culture. All cells were maintained in an incubator at 37 degrees C and 5% CO2 with 95% humidity. The PDC lines were cultured according to standard operating procedures established by the NCI PDMR (https://pdmr.cancer.gov). Table 3 of the manuscript, lists the cell lines along with the number of the three cell types plated to form the mct-spheroids and media for tumor cell growth. After thawing, all PDC lines, except 997537-175-T-J1-PDC and 415267-285-R-J2-PDC, were cultured in Matrigel-coated flasks prepared with a working solution of 1X Ham's F-12 nutrient mix, without supplementation (Thermo Fisher Scientific, cat. 11765054), 100 U/mL penicillin-streptomycin (Thermo Fisher Scientific, cat. 15140122), and 2.5% Matrigel (Corning Inc., Corning, NY, cat. 354248) for the first three passages. The two PDC lines 997537-175-T-J1-PDC and 415267-285-R-J2-PDC were cultured on uncoated flasks. The 857933-349-R-J2-PDC line was cultured in 6C/Colon 1B media containing advanced DMEM/F-12 (Thermo Fisher Scientific, cat. 12634028), 10 mM HEPES (Thermo Fisher Scientific, cat. 15630080), 1X GlutaMAX supplement (Thermo Fisher Scientific, cat. 35050061), 0.1 mg/mL primocin (InvivoGen, San Diego, CA, cat. ant-pm-2), 10% defined fetal bovine serum, heat inactivated (HyClone Laboratories Inc., Logan, UT, cat. SH30070.03HI), 50% L-WRN conditioned media (ATCC, cat. CRL-3276), 1.25 mM N-Acetyl-L-cysteine (Sigma-Aldrich, cat. A9165), 10 mM nicotinamide (Sigma-Aldrich, cat. N0636), 1X B-27 supplement (Thermo Fisher Scientific, cat. 17504044), 1X N-2 supplement (Thermo Fisher Scientific, cat. […]
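Further: spheroids exposed to the agents for one week.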
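Wherever viability, T/C is given: 100% = DMSO vehicle control wells.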

In general, viability, T/C refers to the ratio of treated to control. One may read the IC50 as the point on the concentration scale where inhibition reaches its midpoint. `C#Cc1c(F)ccc2cc(O)cc(-c3ncc4c(N5CC6CCC(C5)N6)nc(OCC56CCCN5CC(F)C6)nc4c3F)c12` (stereo not drawn): the viability, T/C (compound 0.0316 µM) is 108% and 107% and 101%; the viability, T/C (compound 0.1 µM) is 95.9% and 99.1% and 99.3%; the viability, T/C (compound 0.316 µM) is 97.7% and 108% and 93.2%; the viability, T/C (compound 1 µM) was 110% and 99.2% and 95%; the viability, T/C (compound 3.16 µM) is 96% and 102% and 92.8%; the viability, T/C (compound 10 µM) was 98.1% and 99.6% and 90.1%. In addition, the IC50 (curve of compound) was over 10000 nM.

With `C=CC(=O)N1CCN(c2nc(=O)n(-c3c(C)ccnc3C(C)C)c3nc(-c4c(O)cccc4F)c(F)cc23)C(C)C1` (stereo not drawn), the viability, T/C (compound 0.0316 µM) was 107% and 106% and 97.9%; the viability, T/C (compound 0.1 µM) is 93.5% and 101% and 94.9%; the viability, T/C (compound 0.316 µM) was 96% and 106% and 92.7%; the viability, T/C (compound 1 µM) was 104% (2×) and 107%; the viability, T/C (compound 3.16 µM) is 105% and 104% and 97.4%; the viability, T/C (compound 10 µM) was 98.8% and 106% and 75%. Moreover, the half-inhibitory concentration (IC50) (curve of compound) is over 10000 nM.

In the case of `CC(C)n1c(=O)n(C)c2cnc3cc(F)c(-c4ccc(OCCCN5CCCCC5)nc4)cc3c21`, the viability, T/C reads like this: (compound 0.0316 µM) 109% and 101% and 100%; (compound 0.1 µM) 103% and 94.2% and 94%; (compound 0.316 µM) 107% and 99.9% and 97.4%; (compound 1 µM) 99.4% and 95.3% and 105%; (compound 3.16 µM) 90% and 92.7% and 83.1%; (compound 10 µM) 63.3% and 83% and 68%. Moreover, the IC50 (curve of compound) is over 10000 nM.

Consider `CC1COCCN1c1cc(C2(O)CC3CCC(C2)O3)c2cnn(-c3ccn[nH]3)c2n1` (stereo not drawn), for which the viability, T/C (compound 0.0316 µM) is 91% and 98.1% and 100%; the viability, T/C (compound 0.1 µM) was 90.2% and 88.6% and 96.7%; the viability, T/C (compound 0.316 µM) was 54.3% and 58.2% and 96.7%; the viability, T/C (compound 1 µM) was 25.7% and 28.6% and 63.1%; the viability, T/C (compound 3.16 µM) was 9.69% and 10.5% and 42.5%; the viability, T/C (compound 10 µM) was 10.9% and 8.97% and 19.9%. The half-inhibitory concentration (IC50) (curve of compound) was 399 nM and 441 nM and 2040 nM.

Take `CCc1cc2c(N3CCc4c(cc(Cn5ccnc5)cc4-c4cn(C)nc4C(F)(F)F)C3=O)cc(C)nc2c(OC)n1`: the viability, T/C is 93.1% and 105% and 99.3% (compound 0.0316 µM); 106% and 104% and 101% (compound 0.1 µM); 98% and 103% and 106% (compound 0.316 µM); 108% and 107% and 106% (compound 1 µM); 99.3% and 102% and 104% (compound 3.16 µM); 71.7% and 94.3% and 102% (compound 10 µM). In addition, for the setting “curve of compound”, the IC50 was over 10000 nM.

On to `CCc1cc2c(N3CCc4c(cc(Cn5ccnc5)cc4-c4cn(C)nc4C(F)(F)F)C3=O)ccnc2c(OC)n1`, for which the viability, T/C is, setting by setting: (compound 0.0316 µM) 109% and 106% and 102%; (compound 0.1 µM) 94.3% and 98% and 103%; (compound 0.316 µM) 87.5% and 105% and 107%; (compound 1 µM) 107%; (compound 3.16 µM) 91.8% and 108% and 103%; (compound 10 µM) 80.9% and 97.6% and 101%. For the same compound, the IC50 (curve of compound) is over 10000 nM.

Turning to `COc1cc2cc(C(=O)CCC(=O)O)sc2cc1OC`, the viability, T/C reads like this: (compound 0.0316 µM) 106% (2×) and 103%; (compound 0.1 µM) 100% and 98.9% and 101%; (compound 0.316 µM) 108% and 102% and 98.9%; (compound 1 µM) 99.2% and 104% (2×); (compound 3.16 µM) 106% and 105% and 116%; (compound 10 µM) 85.2% and 83.3% and 64.8%. The IC50 (curve of compound) is over 10000 nM.

As for `O=C(Nc1ccc(O)c(NS(=O)(=O)c2ccc(F)cc2)c1)c1ccc(-c2ccccc2)cc1`, the viability, T/C (compound 0.0316 µM) was 108% and 103% and 104%; the viability, T/C (compound 0.1 µM) was 106% and 103% and 91.7%; the viability, T/C (compound 0.316 µM) was 104% and 99.2% and 89.1%; the viability, T/C (compound 1 µM) was 99.6% and 101% and 99.3%; the viability, T/C (compound 3.16 µM) was 108% and 105% and 96.4%; the viability, T/C (compound 10 µM) was 112% and 101% and 90.3%. For the same compound, the IC50 (curve of compound) was over 10000 nM.

Turning to `O=c1[nH]cc(F)c(=O)[nH]1` + COC1C(OC(N)=O)C(O)C(Oc2ccc3c(O)c(NC(=O)c4ccc(O)c(CC=C(C)C)c4)c(=O)oc3c2C)OC1(C)C, the IC50 reads like this: (curve of first compound, second compound 0.0316 µM) 2520 nM; (curve of first compound, second compound 0.1 µM) 2290 nM; (curve of first compound, second compound 0.316 µM) 2150 nM; (curve of first compound, second compound 1 µM) 2250 nM; (curve of first compound, second compound 3.16 µM) 2090 nM; (curve of first compound, second compound 10 µM) 2100 nM. Besides, the viability, T/C is, setting by setting: (second compound 0.0316 µM, first compound 0.0316 µM) 109%; (second compound 0.0316 µM, first compound 0.1 µM) 100%; (second compound 0.0316 µM, first compound 0.316 µM) 108%; (second compound 0.0316 µM, first compound 1 µM) 108%; (second compound 0.0316 µM, first compound 3.16 µM) 36.1%; (second compound 0.0316 µM, first compound 10 µM) 16%. Further, the viability, T/C is 105% (second compound 0.1 µM, first compound 0.0316 µM); 107% (second compound 0.1 µM, first compound 0.1 µM); 95.2% (second compound 0.1 µM, first compound 0.316 µM); 99.6% (second compound 0.1 µM, first compound 1 µM); 30.7% (second compound 0.1 µM, first compound 3.16 µM); 14.9% (second compound 0.1 µM, first compound 10 µM). For the same compound, the viability, T/C reads like this: (second compound 0.316 µM, first compound 0.0316 µM) 105%; (second compound 0.316 µM, first compound 0.1 µM) 94.9%; (second compound 0.316 µM, first compound 0.316 µM) 105%; (second compound 0.316 µM, first compound 1 µM) 87.9%; (second compound 0.316 µM, first compound 3.16 µM) 30.8%; (second compound 0.316 µM, first compound 10 µM) 13.1%. Further, the viability, T/C is, setting by setting: (second compound 1 µM, first compound 0.0316 µM) 108%; (second compound 1 µM, first compound 0.1 µM) 98.9%; (second compound 1 µM, first compound 0.316 µM) 106%; (second compound 1 µM, first compound 1 µM) 107%; (second compound 1 µM, first compound 3.16 µM) 26.9%; (second compound 1 µM, first compound 10 µM) 13.1%. Also, the viability, T/C (second compound 3.16 µM, first compound 0.0316 µM) was 91.3%; the viability, T/C (second compound 3.16 µM, first compound 0.1 µM) was 96.7%; the viability, T/C (second compound 3.16 µM, first compound 0.316 µM) was 108%; the viability, T/C (second compound 3.16 µM, first compound 1 µM) was 88.2%; the viability, T/C (second compound 3.16 µM, first compound 3.16 µM) was 28.2%; the viability, T/C (second compound 3.16 µM, first compound 10 µM) was 13.8%. Besides, the viability, T/C reads like this: (second compound 10 µM, first compound 0.0316 µM) 94.5%; (second compound 10 µM, first compound 0.1 µM) 91.9%; (second compound 10 µM, first compound 0.316 µM) 86%; (second compound 10 µM, first compound 1 µM) 83.7%; (second compound 10 µM, first compound 3.16 µM) 31.6%; (second compound 10 µM, first compound 10 µM) 18.1%.

The values are drawn from PubChem BioAssay AID1963830 (Molecular Pharmacology Branch, DTP, NCI, 2024).
